{"source": "paper PMC5814754", "about": "“Quantitative, Wide-Spectrum Kinase Profiling in Live Cells for Assessing the Effect of Cellular ATP on Target Engagement” (Cell Chemical Biology, 2018)", "test_in_all_cases": "Apparent affinity (EC50) of energy transfer probes by titration onto live HEK293 cells expressing kinase/Nluc fusions (Table S1)", "format_in_all_cases": "binding", "key": {"[1]": {"biological_target": "full-length kinase/Nluc fusion proteins (Homo sapiens, UniProt P54760)", "conditions": "EPHB4, Nluc C; read-out: Probe EC50"}, "[2]": {"biological_target": "full-length kinase/Nluc fusion proteins (Homo sapiens, UniProt O43353)", "conditions": "RIPK2 (NP_003812), Nluc orientation N; read-out: Probe EC50"}, "[3]": {"biological_target": "full-length kinase/Nluc fusion proteins (Homo sapiens, UniProt Q07912)", "conditions": "TNK2 (NP_001010938), Nluc orientation C; read-out: Probe EC50"}, "[4]": {"biological_target": "full-length kinase/Nluc fusion proteins (Homo sapiens, UniProt P00519)", "conditions": "ABL1, Nluc N; read-out: Probe EC50"}, "[5]": {"biological_target": "full-length kinase/Nluc fusion proteins (Homo sapiens, UniProt P57059)", "conditions": "SIK1 (NP_001307572), Nluc orientation N; read-out: Probe EC50"}, "[6]": {"biological_target": "full-length kinase/Nluc fusion proteins (Homo sapiens, UniProt P07947)", "conditions": "YES1 (NP_005424), Nluc orientation C; read-out: Probe EC50"}, "[7]": {"biological_target": "full-length kinase/Nluc fusion proteins (Homo sapiens, UniProt Q9Y2K2)", "conditions": "SIK3 (NP_079440), Nluc orientation N; read-out: Probe EC50"}, "[8]": {"biological_target": "full-length kinase/Nluc fusion proteins (Homo sapiens, UniProt O14976)", "conditions": "GAK, Nluc N; read-out: Probe EC50"}, "[9]": {"biological_target": "full-length kinase/Nluc fusion proteins (Homo sapiens, UniProt P21709)", "conditions": "EPHA1, Nluc C; read-out: Probe EC50"}, "[10]": {"biological_target": "full-length kinase/Nluc fusion proteins (Homo sapiens, UniProt Q9Y616)", "conditions": "IRAK3, Nluc N; read-out: Probe EC50"}, "[11]": {"biological_target": "full-length kinase/Nluc fusion proteins (Homo sapiens, UniProt P29376)", "sequence (P29376 17-864)": "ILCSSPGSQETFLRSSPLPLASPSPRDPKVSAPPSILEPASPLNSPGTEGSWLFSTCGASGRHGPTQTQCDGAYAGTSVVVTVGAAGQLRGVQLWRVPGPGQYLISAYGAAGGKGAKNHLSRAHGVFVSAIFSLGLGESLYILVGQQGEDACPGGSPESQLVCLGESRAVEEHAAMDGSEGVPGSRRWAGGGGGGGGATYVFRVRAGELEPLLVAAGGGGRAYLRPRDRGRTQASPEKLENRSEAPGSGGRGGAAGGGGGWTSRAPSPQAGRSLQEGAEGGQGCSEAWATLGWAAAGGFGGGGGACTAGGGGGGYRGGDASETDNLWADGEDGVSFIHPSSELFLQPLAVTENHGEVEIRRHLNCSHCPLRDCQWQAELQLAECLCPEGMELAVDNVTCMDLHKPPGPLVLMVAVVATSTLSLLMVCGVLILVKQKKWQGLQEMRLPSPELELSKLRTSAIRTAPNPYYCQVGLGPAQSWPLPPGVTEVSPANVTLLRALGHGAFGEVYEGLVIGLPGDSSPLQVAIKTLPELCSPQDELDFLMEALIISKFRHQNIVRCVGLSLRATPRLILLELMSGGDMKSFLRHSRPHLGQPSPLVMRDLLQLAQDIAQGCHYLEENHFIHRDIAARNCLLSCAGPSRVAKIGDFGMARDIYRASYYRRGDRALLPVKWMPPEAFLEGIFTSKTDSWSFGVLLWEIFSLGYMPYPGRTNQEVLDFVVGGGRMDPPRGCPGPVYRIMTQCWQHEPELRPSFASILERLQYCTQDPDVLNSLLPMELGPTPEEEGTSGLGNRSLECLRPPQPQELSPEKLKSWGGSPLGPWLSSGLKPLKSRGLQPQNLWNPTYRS", "conditions": "LTK, Nluc C; read-out: Probe EC50"}, "[12]": {"biological_target": "full-length kinase/Nluc fusion proteins (Homo sapiens, UniProt Q14164)", "conditions": "IKBKE, Nluc N; read-out: Probe EC50"}, "[13]": {"biological_target": "full-length kinase/Nluc fusion proteins (Homo sapiens, UniProt O75460)", "conditions": "ERN1, Nluc C; read-out: Probe EC50"}, "[14]": {"biological_target": "full-length kinase/Nluc fusion proteins (Homo sapiens, UniProt Q13131)", "sequence (Q13131 whole entry, the tested form may be a part)": "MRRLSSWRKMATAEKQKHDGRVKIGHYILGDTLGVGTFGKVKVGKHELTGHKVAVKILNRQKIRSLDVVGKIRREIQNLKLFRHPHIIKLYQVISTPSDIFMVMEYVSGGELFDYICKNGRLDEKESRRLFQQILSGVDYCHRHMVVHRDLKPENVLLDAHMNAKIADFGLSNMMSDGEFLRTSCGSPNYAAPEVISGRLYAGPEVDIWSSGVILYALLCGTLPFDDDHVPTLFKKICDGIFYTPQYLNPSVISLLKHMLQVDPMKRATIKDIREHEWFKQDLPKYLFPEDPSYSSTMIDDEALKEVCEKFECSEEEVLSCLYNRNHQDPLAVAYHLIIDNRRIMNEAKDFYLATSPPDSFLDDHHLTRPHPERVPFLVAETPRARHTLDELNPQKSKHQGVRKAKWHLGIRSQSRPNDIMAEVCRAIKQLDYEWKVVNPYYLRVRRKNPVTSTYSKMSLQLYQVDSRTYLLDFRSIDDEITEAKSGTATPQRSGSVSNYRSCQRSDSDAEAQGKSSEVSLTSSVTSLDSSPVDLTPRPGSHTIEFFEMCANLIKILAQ", "conditions": "PRKAA1, Nluc N; read-out: Probe EC50"}, "[15]": {"biological_target": "full-length kinase/Nluc fusion proteins (Homo sapiens, UniProt O00444)", "sequence (O00444 whole entry, the tested form may be a part)": "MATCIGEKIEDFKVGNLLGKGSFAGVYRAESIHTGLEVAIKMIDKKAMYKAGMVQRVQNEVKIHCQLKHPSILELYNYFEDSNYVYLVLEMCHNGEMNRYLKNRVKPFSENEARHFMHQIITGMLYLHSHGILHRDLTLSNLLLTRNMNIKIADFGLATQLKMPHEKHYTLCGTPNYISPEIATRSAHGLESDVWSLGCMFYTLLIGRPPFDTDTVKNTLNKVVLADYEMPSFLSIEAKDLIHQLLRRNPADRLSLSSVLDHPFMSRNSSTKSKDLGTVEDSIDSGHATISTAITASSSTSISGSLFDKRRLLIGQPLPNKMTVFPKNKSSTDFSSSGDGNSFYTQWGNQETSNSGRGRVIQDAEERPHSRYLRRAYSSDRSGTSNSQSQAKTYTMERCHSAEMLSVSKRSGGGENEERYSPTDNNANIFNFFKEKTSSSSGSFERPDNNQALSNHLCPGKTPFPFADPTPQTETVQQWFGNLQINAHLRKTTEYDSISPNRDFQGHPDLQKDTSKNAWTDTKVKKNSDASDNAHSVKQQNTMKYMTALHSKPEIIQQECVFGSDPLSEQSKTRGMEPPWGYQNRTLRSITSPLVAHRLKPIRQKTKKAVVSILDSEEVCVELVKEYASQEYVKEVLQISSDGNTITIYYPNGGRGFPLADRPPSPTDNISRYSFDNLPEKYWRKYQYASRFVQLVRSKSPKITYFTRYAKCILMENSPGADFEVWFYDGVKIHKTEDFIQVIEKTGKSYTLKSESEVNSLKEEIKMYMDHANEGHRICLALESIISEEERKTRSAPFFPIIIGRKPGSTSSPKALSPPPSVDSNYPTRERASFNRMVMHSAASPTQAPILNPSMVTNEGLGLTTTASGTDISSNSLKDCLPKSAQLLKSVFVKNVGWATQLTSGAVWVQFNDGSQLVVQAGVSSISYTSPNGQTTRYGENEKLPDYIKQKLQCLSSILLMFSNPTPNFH", "conditions": "PLK4, Nluc N; read-out: Probe EC50"}, "[16]": {"biological_target": "full-length kinase/Nluc fusion proteins (Homo sapiens, UniProt Q12851)", "conditions": "MAP4K2, Nluc N; read-out: Probe EC50"}, "[17]": {"biological_target": "full-length kinase/Nluc fusion proteins (Homo sapiens, UniProt Q15831)", "sequence (Q15831 whole entry, the tested form may be a part)": "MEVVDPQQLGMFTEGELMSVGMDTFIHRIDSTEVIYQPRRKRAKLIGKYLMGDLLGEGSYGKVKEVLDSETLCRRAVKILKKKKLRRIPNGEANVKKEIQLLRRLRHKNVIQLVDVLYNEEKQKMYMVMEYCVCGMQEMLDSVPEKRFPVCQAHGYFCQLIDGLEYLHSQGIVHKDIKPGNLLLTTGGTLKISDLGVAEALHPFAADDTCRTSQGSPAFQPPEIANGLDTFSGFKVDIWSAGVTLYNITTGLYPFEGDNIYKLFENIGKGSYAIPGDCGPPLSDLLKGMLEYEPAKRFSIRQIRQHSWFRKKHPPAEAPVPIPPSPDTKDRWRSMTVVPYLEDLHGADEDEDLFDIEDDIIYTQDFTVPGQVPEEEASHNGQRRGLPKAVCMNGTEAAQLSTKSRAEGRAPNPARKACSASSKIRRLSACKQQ", "conditions": "STK11 (NP_000446), Nluc orientation N; read-out: Probe EC50"}, "[18]": {"biological_target": "full-length kinase/Nluc fusion proteins (Homo sapiens, UniProt O15146)", "conditions": "MUSK, Nluc C; read-out: Probe EC50"}, "[19]": {"biological_target": "full-length kinase/Nluc fusion proteins (Homo sapiens, UniProt Q15349)", "sequence (Q15349 whole entry, the tested form may be a part)": "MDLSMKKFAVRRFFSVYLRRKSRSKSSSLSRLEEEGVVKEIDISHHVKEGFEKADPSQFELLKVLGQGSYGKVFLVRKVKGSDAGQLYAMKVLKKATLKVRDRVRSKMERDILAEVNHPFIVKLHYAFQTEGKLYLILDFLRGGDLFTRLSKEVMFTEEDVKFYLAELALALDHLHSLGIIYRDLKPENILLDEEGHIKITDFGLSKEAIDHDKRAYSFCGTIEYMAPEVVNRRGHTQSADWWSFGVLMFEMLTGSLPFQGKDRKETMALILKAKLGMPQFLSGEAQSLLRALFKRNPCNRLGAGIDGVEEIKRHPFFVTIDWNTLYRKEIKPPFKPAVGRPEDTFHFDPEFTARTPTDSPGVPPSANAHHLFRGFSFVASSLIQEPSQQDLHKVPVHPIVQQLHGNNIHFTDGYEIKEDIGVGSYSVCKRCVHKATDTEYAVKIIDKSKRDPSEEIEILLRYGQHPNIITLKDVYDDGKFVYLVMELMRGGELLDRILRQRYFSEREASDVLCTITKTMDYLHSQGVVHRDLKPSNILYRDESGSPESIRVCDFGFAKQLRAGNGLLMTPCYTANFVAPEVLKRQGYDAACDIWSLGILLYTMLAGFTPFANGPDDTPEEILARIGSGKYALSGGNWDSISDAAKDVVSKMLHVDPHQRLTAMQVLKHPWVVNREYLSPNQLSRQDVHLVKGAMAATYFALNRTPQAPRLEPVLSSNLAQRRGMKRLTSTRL", "conditions": "RPS6KA2 (NP_001305865), Nluc orientation N; read-out: Probe EC50"}, "[20]": {"biological_target": "full-length kinase/Nluc fusion proteins (Homo sapiens, UniProt P51956)", "conditions": "NEK3, Nluc N; read-out: Probe EC50"}, "[21]": {"biological_target": "full-length kinase/Nluc fusion proteins (Homo sapiens, UniProt Q8IYT8)", "conditions": "ULK2 (NP_001136082), Nluc orientation N; read-out: Probe EC50"}, "[22]": {"biological_target": "full-length kinase/Nluc fusion proteins (Homo sapiens, UniProt O43283)", "conditions": "MAP3K13, Nluc N; read-out: Probe EC50"}, "[23]": {"biological_target": "full-length kinase/Nluc fusion proteins (Homo sapiens, UniProt P53667)", "conditions": "LIMK1, Nluc C; read-out: Probe EC50"}, "[24]": {"biological_target": "full-length kinase/Nluc fusion proteins (Homo sapiens, UniProt O95835)", "conditions": "LATS1, Nluc C; read-out: Probe EC50"}, "[25]": {"biological_target": "full-length kinase/Nluc fusion proteins (Homo sapiens, UniProt Q16584)", "conditions": "MAP3K11, Nluc N; read-out: Probe EC50"}, "[26]": {"biological_target": "full-length kinase/Nluc fusion proteins (Homo sapiens, UniProt P08069)", "sequence (P08069 31-1367)": "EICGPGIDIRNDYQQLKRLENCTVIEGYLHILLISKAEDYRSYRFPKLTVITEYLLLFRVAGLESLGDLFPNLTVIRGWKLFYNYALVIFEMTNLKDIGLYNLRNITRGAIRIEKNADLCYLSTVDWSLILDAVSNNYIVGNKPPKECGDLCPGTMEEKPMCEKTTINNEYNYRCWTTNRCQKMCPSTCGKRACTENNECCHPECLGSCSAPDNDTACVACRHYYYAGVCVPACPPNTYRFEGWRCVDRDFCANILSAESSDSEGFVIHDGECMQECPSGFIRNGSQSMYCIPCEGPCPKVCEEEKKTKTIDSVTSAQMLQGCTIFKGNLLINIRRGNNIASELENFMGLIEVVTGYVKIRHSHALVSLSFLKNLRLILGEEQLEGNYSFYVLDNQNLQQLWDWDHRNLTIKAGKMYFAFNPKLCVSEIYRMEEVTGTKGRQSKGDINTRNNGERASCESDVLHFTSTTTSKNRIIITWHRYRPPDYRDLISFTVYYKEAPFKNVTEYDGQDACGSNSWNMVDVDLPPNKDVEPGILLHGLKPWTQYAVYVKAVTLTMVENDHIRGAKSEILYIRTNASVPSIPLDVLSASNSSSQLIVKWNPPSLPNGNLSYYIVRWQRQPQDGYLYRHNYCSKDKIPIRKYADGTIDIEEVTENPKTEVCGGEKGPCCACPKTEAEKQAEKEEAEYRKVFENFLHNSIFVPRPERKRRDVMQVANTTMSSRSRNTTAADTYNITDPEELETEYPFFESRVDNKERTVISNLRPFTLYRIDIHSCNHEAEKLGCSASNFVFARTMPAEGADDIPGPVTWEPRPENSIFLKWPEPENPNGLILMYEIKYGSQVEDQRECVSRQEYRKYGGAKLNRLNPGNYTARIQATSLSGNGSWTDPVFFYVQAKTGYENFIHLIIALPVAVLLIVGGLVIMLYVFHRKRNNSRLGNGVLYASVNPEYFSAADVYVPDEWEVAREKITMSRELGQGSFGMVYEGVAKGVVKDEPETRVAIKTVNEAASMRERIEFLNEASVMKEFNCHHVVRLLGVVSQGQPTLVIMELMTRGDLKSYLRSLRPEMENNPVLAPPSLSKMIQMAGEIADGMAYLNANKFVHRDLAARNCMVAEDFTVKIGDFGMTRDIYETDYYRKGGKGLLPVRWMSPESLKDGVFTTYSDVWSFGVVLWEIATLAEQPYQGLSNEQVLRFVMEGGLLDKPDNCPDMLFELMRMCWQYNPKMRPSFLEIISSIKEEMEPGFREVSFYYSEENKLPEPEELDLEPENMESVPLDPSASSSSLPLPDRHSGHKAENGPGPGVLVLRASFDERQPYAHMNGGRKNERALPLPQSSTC", "conditions": "IGF1R, Nluc C; read-out: Probe EC50"}, "[27]": {"biological_target": "full-length kinase/Nluc fusion proteins (Homo sapiens, UniProt P06213)", "conditions": "INSR, Nluc C; read-out: Probe EC50"}, "[28]": {"biological_target": "full-length kinase/Nluc fusion proteins (Homo sapiens, UniProt Q5S007)", "conditions": "LRRK2, Nluc C; read-out: Probe EC50"}, "[29]": {"biological_target": "full-length kinase/Nluc fusion proteins (Homo sapiens, UniProt Q06418)", "conditions": "TYRO3 (NP_006284), Nluc orientation C; read-out: Probe EC50"}, "[30]": {"biological_target": "full-length kinase/Nluc fusion proteins (Homo sapiens, UniProt Q8IVH8)", "conditions": "MAP4K3, Nluc N; read-out: Probe EC50"}, "[31]": {"biological_target": "full-length kinase/Nluc fusion proteins (Homo sapiens, UniProt P30530)", "conditions": "AXL, Nluc C; read-out: Probe EC50"}, "[32]": {"biological_target": "full-length kinase/Nluc fusion proteins (Homo sapiens, UniProt Q16659)", "conditions": "MAPK6, Nluc N; read-out: Probe EC50"}}}
{"smiles": "Cc1nc(Nc2ncc(C(=O)Nc3c(C)cccc3Cl)s2)cc(N2CCN(CCOCCNC(=O)CCc3ccc4n3[B-](F)(F)[N+]3=C(c5ccc[nH]5)C=CC3=C4)CC2)n1", "note": "[Energy Transfer Probe 6, 2-((6-(4-(2-(2-aminoethoxy)ethyl)piperazin-1-yl)-2-methylpyrimidin-4-yl)amino)-N-(2-chloro-6-methylphenyl)thiazole-5-carboxamide-NanoBRET 590]", "values": [{"measurement": "EC50", "setting": "[1]", "value": 10, "unit": "nM"}, {"measurement": "EC50", "setting": "[2]", "value": 200, "unit": "nM"}, {"measurement": "EC50", "setting": "[3]", "value": 100, "unit": "nM"}, {"measurement": "EC50", "setting": "[4]", "value": 200, "unit": "nM"}, {"measurement": "EC50", "setting": "[5]", "value": 100, "unit": "nM"}, {"measurement": "EC50", "setting": "[6]", "value": 600, "unit": "nM"}, {"measurement": "EC50", "setting": "[7]", "value": "> 1000", "unit": "nM"}, {"measurement": "EC50", "setting": "[8]", "value": 500, "unit": "nM"}, {"measurement": "EC50", "setting": "[9]", "value": 300, "unit": "nM"}]}
{"smiles": "CNC(=O)c1ccccc1Nc1nc(Nc2ccc(N3CCN(C(=O)CCOCCOCCOCCOCCNC(=O)CCc4ccc5n4[B-](F)(F)[N+]4=C(c6ccc[nH]6)C=CC4=C5)CC3)cc2)ncc1Cl", "note": "[Energy Transfer Probe 5, 2-((2-((4-(4-(1-amino-3,6,9,12-tetraoxapentadecan-15-oyl)piperazin-1-yl)phenyl)amino)-5-chloropyrimidin-4-yl)amino)-N-methylbenzamide-NanoBRET 590]", "values": [{"measurement": "EC50", "setting": "[10]", "value": 60, "unit": "nM"}, {"measurement": "EC50", "setting": "[11]", "value": "> 1000", "unit": "nM"}, {"measurement": "EC50", "setting": "[12]", "value": "> 1000", "unit": "nM"}, {"measurement": "EC50", "setting": "[13]", "value": "> 1000", "unit": "nM"}, {"measurement": "EC50", "setting": "[14]", "value": 300, "unit": "nM"}, {"measurement": "EC50", "setting": "[15]", "value": 400, "unit": "nM"}, {"measurement": "EC50", "setting": "[16]", "value": "> 1000", "unit": "nM"}, {"measurement": "EC50", "setting": "[17]", "value": "> 1000", "unit": "nM"}, {"measurement": "EC50", "setting": "[18]", "value": "> 1000", "unit": "nM"}, {"measurement": "EC50", "setting": "[19]", "value": 600, "unit": "nM"}, {"measurement": "EC50", "setting": "[20]", "value": "> 1000", "unit": "nM"}, {"measurement": "EC50", "setting": "[21]", "value": "> 1000", "unit": "nM"}, {"measurement": "EC50", "setting": "[22]", "value": 200, "unit": "nM"}, {"measurement": "EC50", "setting": "[23]", "value": "> 1000", "unit": "nM"}, {"measurement": "EC50", "setting": "[24]", "value": 600, "unit": "nM"}, {"measurement": "EC50", "setting": "[25]", "value": "> 1000", "unit": "nM"}, {"measurement": "EC50", "setting": "[26]", "value": "> 1000", "unit": "nM"}, {"measurement": "EC50", "setting": "[27]", "value": "> 1000", "unit": "nM"}, {"measurement": "EC50", "setting": "[28]", "value": "> 1000", "unit": "nM"}, {"measurement": "EC50", "setting": "[29]", "value": "> 1000", "unit": "nM"}, {"measurement": "EC50", "setting": "[30]", "value": "> 1000", "unit": "nM"}, {"measurement": "EC50", "setting": "[31]", "value": 200, "unit": "nM"}, {"measurement": "EC50", "setting": "[32]", "value": 400, "unit": "nM"}]}
